Measured values published in ChEMBL document CHEMBL4665775, “Half-life extension of peptidic APJ agonists by N-terminal lipid conjugation” (Bioorg Med Chem Lett, 2020).
Active and inactive are the calls of the source. The calls are words filed in the database; no cut-off is given here.

Experiments:
Rattus norvegicus [1] = test: Positive […] activity in anesthetized Lewis rat model of myocardial infarction assessed as plasma concentration for maximal pharmacodynamic effect at 1 mg/kg/min, iv administered as continuous infusion for 20 mins; format: functional
Rattus norvegicus [2] = test: Positive […] activity in anesthetized Lewis rat model of myocardial infarction assessed as increase in ejection fraction at 1 mg/kg/min, iv administered as continuous infusion for 20 mins; format: functional
[3] = Agonist activity at APJ receptor in anesthetized Lewis rat model of myocardial infarction assessed as target coverage at 10 ug/kg/min iv administered as continuous infusion for 30 mins relative to control; format: functional; settings: dose 10 µg/kg/min, 0.5 h
[4] = Unbound Cmax in rat at 0.5 mg/kg, sc at 15 mins; format: ADME, organism-based; settings: in vivo, 0.25 h
[5] = Agonist activity at APJ receptor in anesthetized Lewis rat model of myocardial infarction assessed as target coverage at 30 ug/kg/min iv administered as continuous infusion for 30 mins relative to control; format: functional; settings: dose 30 µg/kg/min, 0.5 h
[6] = Stability in rat Kidney S9 fraction assessed as compound remaining at 4 hrs; format: ADME, subcellular; settings: read-out: Stabilty
Rattus norvegicus [7] = test: Positive […] activity in anesthetized Lewis rat model of myocardial infarction assessed as increase in ejection fraction at 10 ug/kg/min, iv administered as continuous infusion for 30 mins; format: functional; settings: dose 10 µg/kg/min, 0.5 h
[8] = Stability in rat liver S9 fraction assessed as compound remaining at 4 hrs; format: ADME, subcellular; settings: read-out: Stabilty
Rattus norvegicus [9] = test: Positive […] activity in anesthetized Lewis rat model of myocardial infarction assessed as increase in ejection fraction at 3.7 ug/kg/min, iv administered as infusion for 30 mins; format: functional, organism-based; settings: dose 3.7 µg/kg/min
[10] = Stability in rat plasma assessed as compound remaining at 4 hrs; format: ADME, cell-free; settings: read-out: Stabilty
[11] = Plasma protein binding in rat assessed as unbound fraction by LC-MS/MS analysis; format: ADME, cell-free
Apelin receptor = target: T1, Apelin receptor (Rattus norvegicus, UniProt Q9JHG3); test: Agonist activity at rat APJ receptor stably expressed in CHO cell membranes in presence of [35S]GTPgammaS by scintillation proximity assay; format: functional
T1 sequence (Q9JHG3 whole entry): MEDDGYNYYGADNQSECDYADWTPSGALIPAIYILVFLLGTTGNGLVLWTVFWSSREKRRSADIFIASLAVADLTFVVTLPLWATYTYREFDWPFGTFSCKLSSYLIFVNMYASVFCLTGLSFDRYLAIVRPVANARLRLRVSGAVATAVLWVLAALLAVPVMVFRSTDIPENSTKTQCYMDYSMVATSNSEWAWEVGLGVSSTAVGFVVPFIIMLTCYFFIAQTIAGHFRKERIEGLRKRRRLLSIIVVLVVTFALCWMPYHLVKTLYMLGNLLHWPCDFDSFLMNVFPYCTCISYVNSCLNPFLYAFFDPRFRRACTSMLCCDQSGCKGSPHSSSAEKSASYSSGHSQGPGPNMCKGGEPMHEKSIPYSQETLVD

Rattus norvegicus [12] = test: Positive […] activity in anesthetized Lewis rat model of myocardial infarction assessed as increase in ejection fraction at 30 ug/kg/min, iv administered as infusion for 30 mins; format: functional; settings: dose 30 µg/kg/min, 0.5 h
[13] = Unbound fraction in anesthetized Lewis rat myocardial infarction model plasma assessed as free plasma concentration at 30 ug/kg/min, iv administered as continuous infusion for 30 mins; format: ADME, organism-based; settings: in vivo, 0.03 mg/kg, 0.5 h, dose 30 µg/kg/min
Rattus norvegicus [14] = test: Agonist activity at APJ receptor in anesthetized Lewis rat model of myocardial infarction assessed as target coverage at 3.7 ug/kg/min, iv administered as continuous infusion for 30 mins; format: functional, organism-based; settings: dose 3.7 µg/kg/min
[15] = Terminal half life in rat at 0.1 mg/kg, iv for 30 mins; format: ADME, organism-based; settings: in vivo, read-out: beta t1/2
[16] = Unbound fraction in anesthetized Lewis rat myocardial infarction model plasma assessed as free plasma concentration at 10 ug/kg/min, iv administered as continuous infusion for 30 mins; format: ADME, organism-based; settings: in vivo, 0.01 mg/kg, 0.5 h, dose 10 µg/kg/min
[17] = Unbound fraction in anesthetized Lewis rat myocardial infarction model plasma assessed as free plasma concentration at 3.7 ug/kg/min, iv administered as continuous infusion for 30 mins; format: ADME, organism-based; settings: in vivo, 0.0037 mg/kg, 0.5 h, dose 3.7 µg/kg/min

| fCmax [4] [nM] | remaining at 4 h [6] [%] | remaining at 4 h [8] [%] | remaining at 4 h [10] [%] | fraction unbound [11] | EC50 (Apelin receptor) [nM] | Cp(f) [13] [nM] | Activity (Rattus norvegicus [14]) | half-life [15] [min] | Cp(f) [16] [nM] | Cp(f) [17] [nM] | Structure (SMILES) | MPE (Rattus norvegicus [1]) [µM] | Activity (Rattus norvegicus [2]) [%] | fold change (FC) [3] | fold change (FC) [5] | Activity (Rattus norvegicus [7]) [%] | Activity (Rattus norvegicus [9]) | Activity (Rattus norvegicus [12]) [%] |
| --- | --- | --- | --- | --- | --- | --- | --- | --- | --- | --- | --- | --- | --- | --- | --- | --- | --- | --- |
|  |  |  |  |  |  |  |  |  |  |  | CSCC[C@H](NC(=O)[C@@H]1CCCN1C(=O)CNC(=O)[C@H](CCCCN)NC(=O)[C@H](Cc1cnc[nH]1)NC(=O)[C@H](CO)NC(=O)[C@H](CC(C)C)NC(=O)[C@H](CCCNC(=N)N)NC(=O)[C@@H]1CCCN1C(=O)[C@H](CCCNC(=N)N)NC(=O)[C@@H]1CCC(=O)N1)C(=O)N1CCC[C@H]1C(=O)N[C@@H](Cc1ccccc1)C(=O)O | 16.4 | 16.6 |  |  |  |  |  |
| 0.3 | 82 | > 90 | 51 | 0.011 | 4.6 | 29 | inactive | 4.3 | 12 | 3 | CCCCCCCCCCCCC(=O)N[C@@H](CCC(=O)NCCOCCOCC(=O)NCCOCCOCC(=O)N[C@@H](CCC(N)=O)C(=O)N[C@@H](CCCNC(=N)N)C(=O)N1CCC[C@H]1C(=O)N[C@@H](CCCNC(=N)N)C(=O)N[C@@H](CC(C)C)C(=O)N[C@@H](CO)C(=O)N[C@@H](Cc1c[nH]cn1)C(=O)N[C@@H](CCCCN)C(=O)NCC(=O)N1CCC[C@H]1C(=O)N[C@@H](CCSC)C(=O)N1CCC[C@H]1C(=O)N[C@@H](Cc1ccccc1)C(=O)O)C(=O)O |  |  | 2.7 | 6.3 | 22.8 | inactive | 6.1 |
